From US9241991B2, “Agents, compositions, and methods for treating pruritus and related skin conditions” (The Brigham and Women's Hospital, Inc., priority 2010, dated 2016)

Experiments:
DRG neurons = experiment: Calcium imaging from cultured DRG neurons; format: cell-based; details: wild-type mice DRG neurons
Description: DRGs from all spinal levels of 4-week old mice were collected in cold DH10 (90% DMEM/F-12, 10% FBS, 100 U/ml penicillin, and 100 μg/ml Streptomycin, Gibco) and treated with enzyme solution (5 mg/ml Dispase, 1 mg/ml Collagenase Type I in HPBS without Ca^++ and Mg^++, Gibco) at 37° C. Following trituration and centrifugation, cells were resuspended in DH10, plated on glass cover slips coated with poly-D-lysine (0.5 mg/ml, Stoughton, Mass.) and laminin (10 μg/ml, Invitrogen), cultured in an incubator ([…] and 5% CO2) at 37° C. and used within 24 hours. Neurons were loaded with Fura 2-acetomethoxy ester (Molecular Probes) for 30 min in the dark at room temperature. After washing, cells were imaged at 340 and 380 nm excitation to detect intracellular free calcium. To compare the response to histamine, chloroquine, and capsaicin between WT and Tlr3-deficient DRG neurons, calcium imaging assays were performed with an experimenter blind to genotype (n=3 per genotype), and the percentages of DRG neurons showing calcium responses were determined as we previously described (23).

TLR7 [1] = experiment: Scratches after intradermal injection in the nape of the neck, WT and Tlr7-/- mice; format: in vivo; details: for dose response curve of scratching: intradermal injection, nape
Source text: We next evaluated whether TLR7 plays a role in itch sensation. We counted the number of scratches (bouts) by a hindpaw of mouse following intradermal injection of pruritogenic agents in the nape of the neck.

TLR7 [2] = target: T1, TLR7 (Mus musculus, UniProt P58681); experiment: Cheek model of itch versus pain, TLR7 ligands; format: in vivo, mice; details: 20 μg intradermal into the cheek
T1 construct: We found functional TLR7 receptors in small-size DRG neurons; from tissue; host or cells: small DRG neurons of mice; nape and cheek skin of live mice (C57BL/6J background, CD1)
T1 sequence (P58681 27-1050): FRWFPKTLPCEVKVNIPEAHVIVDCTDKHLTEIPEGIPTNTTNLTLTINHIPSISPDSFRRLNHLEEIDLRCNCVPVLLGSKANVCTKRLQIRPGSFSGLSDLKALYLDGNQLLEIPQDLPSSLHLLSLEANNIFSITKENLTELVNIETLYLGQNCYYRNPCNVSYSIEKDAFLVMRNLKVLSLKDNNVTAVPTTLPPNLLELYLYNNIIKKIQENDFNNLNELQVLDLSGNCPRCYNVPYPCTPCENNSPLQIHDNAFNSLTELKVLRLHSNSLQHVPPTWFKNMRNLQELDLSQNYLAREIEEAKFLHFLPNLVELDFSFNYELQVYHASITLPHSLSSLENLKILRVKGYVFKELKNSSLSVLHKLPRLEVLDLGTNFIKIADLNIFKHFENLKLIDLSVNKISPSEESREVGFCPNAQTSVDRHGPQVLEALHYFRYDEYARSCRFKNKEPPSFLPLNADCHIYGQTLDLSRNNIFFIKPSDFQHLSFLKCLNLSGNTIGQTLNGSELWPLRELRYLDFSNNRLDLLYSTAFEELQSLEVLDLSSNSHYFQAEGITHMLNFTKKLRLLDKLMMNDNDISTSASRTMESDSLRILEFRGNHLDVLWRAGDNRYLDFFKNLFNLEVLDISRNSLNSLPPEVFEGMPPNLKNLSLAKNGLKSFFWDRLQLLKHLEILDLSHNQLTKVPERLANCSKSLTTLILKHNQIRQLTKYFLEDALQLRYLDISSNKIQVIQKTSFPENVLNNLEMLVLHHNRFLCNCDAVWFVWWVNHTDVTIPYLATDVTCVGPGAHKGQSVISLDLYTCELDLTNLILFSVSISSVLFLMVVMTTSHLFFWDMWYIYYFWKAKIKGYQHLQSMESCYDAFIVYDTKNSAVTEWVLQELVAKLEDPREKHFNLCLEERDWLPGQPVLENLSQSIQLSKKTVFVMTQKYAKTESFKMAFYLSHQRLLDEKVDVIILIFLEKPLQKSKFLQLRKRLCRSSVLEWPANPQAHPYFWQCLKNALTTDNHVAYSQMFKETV
Description: To distinguish itch and pain responses simultaneously, we used the cheek model by injection of chemical into cheek of mice (8). After brief anesthesia with isoflurane, we shaved mice on cheeks (approx. 5×8 mm area) two days before experiments. On the day of experiment, we injected 10 μl of reagent (50 μg compound 48/80 or 100 μg chloroquine) into the cheek and counted the number of wipes and the number of scratches for 30 min. We only counted those unilateral wipes with the forelimb that were not part of grooming behavior. One scratch was defined as a lifting of the hind paw toward the injection site on the cheek and then returning the paw to the floor or to the mouth.
To further investigate a unique role of TLR7 in itch versus pain, we used a recently developed “cheek model” of itch (Shimada, S. G. & LaMotte, R. H. Pain 139, 681-687 (2008)).

TRPV1 = TRPV1 (Mus musculus, UniProt Q704Y3); experiment: Resiniferatoxin pretreatment: heat sensitivity, imiquimod-induced scratches, TLR7+ skin fibers; format: in vivo, mice; set-up: central terminals of TRPV1-expressing nociceptors; from tissue; host or cells: mouse lumbar spinal cord slices (L4-L5); live mice (intrathecal capsaicin, resiniferatoxin pretreatment)
Source text: C-fibers, express transient receptor potential subtype V1 (TRPV1) and are indispensable for itch sensation by various pruritogens (Imamachi, N. et al. Proc. Natl. Acad. Sci. U.S. A 106, 11330-11335 (2009)). […] Thus, TRPV1-expressing C-fibers but not TRPV1 per se are required for imiquimod-elicited itch. We also tested itch responses in mast cell-deficient SASH mice (Liu, Q. et al. Cell 139, 1353-1365 (2009)) and only found a moderate reduction (28%) in imiquimod-induced scratching (FIG. 12c).

Chain of TRPV1 (Q704Y3 whole entry): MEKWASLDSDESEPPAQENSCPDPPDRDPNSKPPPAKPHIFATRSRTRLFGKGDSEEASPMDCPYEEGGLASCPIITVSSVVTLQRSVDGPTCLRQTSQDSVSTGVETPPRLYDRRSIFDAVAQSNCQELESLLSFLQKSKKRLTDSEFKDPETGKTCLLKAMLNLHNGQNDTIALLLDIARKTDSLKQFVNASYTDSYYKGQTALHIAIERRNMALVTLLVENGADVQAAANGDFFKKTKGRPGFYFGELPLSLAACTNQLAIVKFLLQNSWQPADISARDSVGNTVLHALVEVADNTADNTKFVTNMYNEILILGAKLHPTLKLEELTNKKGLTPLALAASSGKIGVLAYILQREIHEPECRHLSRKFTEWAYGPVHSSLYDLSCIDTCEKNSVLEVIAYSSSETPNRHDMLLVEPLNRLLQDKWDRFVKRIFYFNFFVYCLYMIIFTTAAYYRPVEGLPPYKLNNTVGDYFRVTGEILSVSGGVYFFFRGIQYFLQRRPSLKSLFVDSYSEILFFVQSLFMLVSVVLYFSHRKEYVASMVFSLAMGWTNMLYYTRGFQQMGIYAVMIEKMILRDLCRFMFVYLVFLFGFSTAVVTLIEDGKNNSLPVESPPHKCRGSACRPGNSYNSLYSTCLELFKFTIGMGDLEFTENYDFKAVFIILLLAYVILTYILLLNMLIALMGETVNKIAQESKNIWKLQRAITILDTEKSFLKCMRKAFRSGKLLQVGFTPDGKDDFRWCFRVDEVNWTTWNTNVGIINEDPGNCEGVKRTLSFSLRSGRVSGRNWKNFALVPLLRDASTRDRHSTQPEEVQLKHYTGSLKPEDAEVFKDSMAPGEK

How did the “neurons with intracellular Ca2+ increases” value (DRG neurons) turn out when `NCCc1c[nH]cn1` [histamine] was run?
Its value is 10%.

How did the “dose response curve of scratching” value (TLR7 [1]) turn out when `C=CCn1c(=O)n([C@@H]2O[C@H](CO)[C@@H](O)[C@H]2O)c2nc(N)[nH]c(=O)c21` [loxoribine] was run?
Its value is “inverted-U-shaped dose response curve”.

What about the “scratches in Tlr7-/- mice versus WT” value (TLR7 [1]; intradermal, 100 μg) of the same compound?
Its value is “reduced”.

And the “itch-like scratching in cheek model” value (TLR7 [2])?
Its value is “elicited itch-like scratching”.

And the “pain-indicative wiping in cheek model” value (TLR7 [2])?
Its value is “not pain-indicative wiping behavior”.

Which “neurons with intracellular Ca2+ increases” value (DRG neurons) does the source give for `CCN(CC)CCCC(C)Nc1ccnc2cc(Cl)ccc12` (centres unmarked) [chloroquine] here?
Its value is 5%.

And the “TLR7 dependence of scratching at the highest dose” value (TLR7 [1]; 600 μg)?
The value was “TLR7-independent”.

And the “dose response curve of scratching” value (TLR7 [1])?
The value was “bell-shaped dose response curve”.

What does the source list for `C=C(C)[C@]12C[C@@H](C)[C@@]34O[C@](Cc5ccccc5)(O[C@@H]1[C@@H]3C=C(COC(=O)Cc1ccc(O)c(OC)c1)C[C@]1(O)C(=O)C(C)=C[C@@H]41)O2` [RTX, resiniferatoxin]?
heat sensitivity after pretreatment (TRPV1; RTX pretreatment): loss of heat sensitivity; imiquimod-induced scratches after pretreatment (TRPV1; RTX pretreatment): almost abolished; TLR7+ fibers in the skin (TRPV1; RTX treatment): ablated
